Drawing on BindingDB's records for patent US9446044 (DIAXONHIT, 2016), this text covers IC50 for three molecules.

Molecules are shown by their SMILES.

The IC50 is the concentration that gives 50% inhibition. A high value points to lower potency.

The assay has as its target Dual specificity tyrosine-phosphorylation-regulated kinase 1A (Homo sapiens, UniProt Q13627). The experiment in a line: HotSpot Technology Assay. The conditions noted are these: pH 7.5; 25 °C.
For the molecule `COC(=O)c1nc2ccc3ncnc(Nc4ccc5c(c4)OCO5)c3c2s1` [US9446044, 84], the midpoint of inhibition, the IC50, lay at 500 nM.

For the molecule `COc1ccc(Nc2ncnc3ccc4nc(C(=N)N(C)C)sc4c23)cc1` [US9446044, 28], it took 500 nM to reach half-maximal inhibition (IC50). As to `NC(=O)c1nc2ccc3ncnc(Nc4ccc5c(c4)OCO5)c3c2s1` [US9446044, 39], the IC50 amounted to 500 nM.
